Results: paper PMC6753678, “Fueling Open Innovation for Malaria Transmission-Blocking Drugs: Hundreds of Molecules Targeting Early Parasite Mosquito Stages” (Frontiers in Microbiology, 2019)
Where two headings read alike, the source gives them in different places.

Legend:
[1] = test system: HepG2 cells; assay: HepG2 cytotoxicity assay
In short: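 Cells are plated at 2,500 per well on compound-treated plates in MEM containing 10% fetal bovine serum and 1% NEAA, then incubated 48 h at 37°C.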

[2] = test system: P. falciparum late stage (stages IV-V) gametocytes; design: method as in Almela et al 2016; details: ref Almela et al 2016, read-out: Pf GCT ATP IC50, cited from earlier work
[3] = test system: P. falciparum late stage (stages IV-V) gametocytes; assay: P. falciparum late stage gametocyte ATP depletion assay (Pf GC-ATP); details: 1: YES; 0: NO; >10-fold selectivity over cytotoxicity
[4] = test system: P. falciparum female gametocytes; design: method as in Miguel-Blanco et al 2017; details: TCAMS screen comparison; ref Miguel-Blanco et al 2017; read-out: Pf FGAA IC50; cited from earlier work
[5] = HepG2 cytotoxicity unified across screens, >25 set to 25.00
[6] = P. falciparum late stage gametocyte ATP assay, TCAMS screen

Row | SMILES | Unified cytotox [1, 5] [µM] | IC50 [2, 6] [nM] | Is compound selective in assay? Pf GC-ATP active? [3] | IC50 [4] [nM] | Unified cytotox ([1]; HepG2 cytotoxicity unified across the three screens) [µM] | IC50 ([2]; TCAMS screen comparison) [nM]
1 | CN(C)CCCn1c(N)c(-c2nc3ccccc3[nH]2)c2nc(C#N)c(C#N)nc21 [TCMDC-123729] | 6.93 | 200 | 1 (1: YES) |  |  | 
2 | Cc1ccc(Nc2nc(-c3ccccn3)cs2)nc1 [TCMDC-125854] |  |  |  | 27.3 | 33.07 | 160
3 | Nc1c2ccccc2nc2ccc(-c3ccccc3)cc12 [TCMDC-132030] | 3.30 | 490 | 0 (0: NO) |  |  | 
4 | CCc1c(CCNCCCCCCNCCc2ccc(Br)cc2)ccc(OC)c1OC.Cl [TCMDC-132045] | 3.20 | 220 | 1 (1: YES) |  |  | 
5 | CCc1c(CCNCCCCCCNCCc2ccc(OC)c(OC)c2C)ccc(OC)c1OC.Cl [TCMDC-132051] | 7.75 | 770 | 1 (1: YES) |  |  | 
6 | CCc1c(CCNCCc2cccc(CCNCCc3ccc(OC)c(OC)c3CC)c2)ccc(OC)c1OC.Cl [TCMDC-132056] | 4.11 | 550 | 0 (0: NO) |  |  | 
7 | CCc1c(CCNCCCC(C)CCNCCc2ccc(OC)c(OC)c2CC)ccc(OC)c1OC.Cl (stereo not drawn) [TCMDC-132065] | 6.00 | 450 | 1 (1: YES) |  |  | 
8 | COc1cccc(CCc2c(CCNCCCCCCNCCc3ccccc3)ccc(OC)c2OC)c1.Cl [TCMDC-132105] | 7.70 | 180 | 1 (1: YES) |  |  | 
9 | Cc1cc(-c2cccc(CNC3CCCC3)c2)ccc1S(=O)(=O)NCCN1CCCC1.O=C(O)C(F)(F)F [TCMDC-132279] | 7.50 | 1240 | 0 (0: NO) |  |  | 
10 | O=C(O)C(F)(F)F.O=S(=O)(NCCN1CCCC1)c1cccc(-c2ccc(CNCc3ccc(F)cc3)cc2)c1 [TCMDC-132289] | 7.40 | 2690 | 0 (0: NO) |  |  | 
11 | COc1ccc(CNCc2ccc(F)cc2)cc1-c1ccc(S(=O)(=O)NCCN2CCCC2)cc1.O=C(O)C(F)(F)F [TCMDC-132294] | 6.50 | 1210 | 0 (0: NO) |  |  | 
12 | COc1ccc(CNCc2ccc(F)cc2)cc1-c1ccc(OC)c(S(=O)(=O)NCCN2CCCC2)c1.O=C(O)C(F)(F)F [TCMDC-132295] | 11.40 | 720 | 1 (1: YES) |  |  | 
13 | COc1ccc(CNCCc2cccs2)cc1-c1cccc(S(=O)(=O)NCCN2CCCC2)c1.O=C(O)C(F)(F)F [TCMDC-132479] | 11.40 | 1680 | 0 (0: NO) |  |  | 
14 | O=C(Nc1ccc(N2CCNCC2)cc1)c1ccn2ncc(-c3cccc(Cl)c3)c2n1 [TCMDC-132663] | 22.22 | 3500 | 0 (0: NO) |  |  | 
15 | NCc1ccc(CNCc2cccc(-c3ccc(-c4nc5ccccc5[nH]4)cc3)c2)cc1.O=C(O)C(F)(F)F [TCMDC-132815] | 21.82 | 480 | 1 (1: YES) |  |  | 
16 | O=C(O)C(F)(F)F.c1cc(CNCCN2CCNCC2)cc(-c2cccc(-c3nc4ccccc4[nH]3)c2)c1 [TCMDC-132859] | 19.30 | 710 | 1 (1: YES) |  |  | 
17 | Fc1ccc2[nH]c(-c3cccc(-c4cccc(CNCCN5CCNCC5)c4)c3)nc2c1.O=C(O)C(F)(F)F [TCMDC-132860] | 19.63 | 740 | 1 (1: YES) |  |  | 
18 | Fc1ccc2[nH]c(-c3cccc(-c4ccc(CNCCN5CCNCC5)cc4)c3)nc2c1.O=C(O)C(F)(F)F [TCMDC-132863] | 24.16 | 1450 | 1 (1: YES) |  |  | 
